Assay results taken from patent US20200399262A1, “COMPOUNDS FOR INHIBITING PROTEIN DEGRADATION AND METHODS OF USE THEREOF IN THE TREATMENT OF CANCER” (PI Therapeutics Ltd, priority 2018, published 2020).

Key:
proteasome = test: Proteasome activity (Proteasome-GLO) in intact MM1.S cells; format: cell-based; conditions: 3 hr at 37° C.
Description: Proteasome activity was measured in intact MM1.S cells as cleavage of peptide substrates, specific for Trypsin like (TL), Chemotrypsin like (CTL) and Caspase like (PL) activities of the proteasome following treatment with Compound B1, Compound AA or Bortezomib (BTZ) at ˜EC50 concentrations for 3 hr at 37° C. BTZ was used as positive control.
Proteasome activity. The assay was performed only when cell viability is ≥90%. Cells were seeded in 96-well white clear bottom plates and treated with diluted compounds or vehicle control in triplicates for 3 hours at various concentrations. Catalytic activity was measured using three luminogenic proteasome substrates: Suc-LLVY-aminoluciferin (Succinyl-leucine-leucine-valine-tyrosine-aminoluciferin), Z-LRR-aminoluciferin (Z-leucine-arginine-arginine-aminoluciferin) and Z-nLPnLD-aminoluciferin (Z-norleucine-proline-norleucine-aspartate-aminoluciferin) for the chymotrypsin-like, trypsin-like and caspase-like activities, respectively (Proteasome-GLO, Promega). The emitted light was proportional to the proteasomal activity. Catalytic activity was calculated as the percent activity from control vehicle-treated cells.
MM1.S cells, were treated with Compound B1, Compound AA or Bortezomib (BTZ) at various concentrations for 3 hr at 37° C. […] Proteasome activity was measured by cleavage of proteasome-specific peptide substrates for TL, CTL and PL activities.

MM1.S xenograft = test: MM1.S subcutaneous flank xenograft in athymic nude mice; format: in vivo; conditions: for MM tumor growth compared to vehicle control / body weight % changes: TIW for 21 days; for Blood chemistry profiles (liver or kidney toxicity): TIW, treated mice
Description: FIG. 4A-4D depicts the growth inhibition of MM1.S xenograft in nude mice by Compound B1 (FIG. 4A, FIG. 4B) and Compound AA (FIG. 4C, FIG. 4D). FIG. 4A and FIG. 4C show tumor growth inhibition observed at end point measurements by Compound B1 and AA respectively. […] MM.1S cells (5×10^6 cells/mouse) were implanted in the rear flank of mail mice (6 weeks of age at the time of tumor implantation). On Day 20-23, mice were randomized for equivalent distribution of tumor volumes to treatment groups (n=5/group) and treated IV with vehicle, compound B1 (FIG. 4A) and compound AA (FIG. 4C), three time a week (TIW) for 21 days. Data are presented as mean tumor volume±SD. Body weight % changes in treated animals observed during the course of the study for compound B1 (FIG. 4B) and Compound AA (FIG. 4D).
Animal xenograft models. MM1.S, HCT-116, SW620 cell lines were purchased from ATCC and used for xenograft model. The cells were cultured in RPMI medium (Sigma-Aldrich) supplemented with 10% fetal bovine serum (FBS) and divided for up to 5 passages. Shortly prior to injection, cell suspension was mixed with Matrigel at 1:1 (V/V) and injected subcutaneously to the rear flank area of male nude athymic 6 weeks old mice to obtain administration of 5×10^6 cells/animal. On day 20-23, when tumor volume reached 100-150 mm^3, mice were randomized for equivalent distribution of tumor volumes to treatment groups (n=5/group) and treated via intravenous injection.

[1] = tested on: PBMCs from healthy donors; test: In-vitro safety in PBMCs from healthy donors (ATPlite viability); format: cell-based; conditions: for therapeutic window, EC50 (PBMC)/EC50 (MM1.S) ratio: 5 healthy donor PBMC samples, viability 48 h later; for therapeutic window, EC50 (PBMC)/EC50 (MM1.S) ratio / cytotoxicity to PBMCs from healthy donors: 6 h treatment; for sensitivity of MM1.S cells versus PBMCs from healthy donors: 6 hr exposure, viability following 48 h of incubation; for cytotoxicity to PBMCs from healthy donors: viability 48 h later (ATPlight assay)
Description: FIG. 5 depicts the in-vitro safety of Compound B1 and Compound AA in Peripheral Blood Mononuclear Cells (PBMCs) from healthy donors respectively. MM1.S cells and normal PBMCs from healthy donors were treated with various concentrations of indicated compounds for 6 h and then analyzed 48 h later for cell viability (ATPlight assay). […] Calculated therapeutic windows: […], generated from 5 healthy donor PBMC samples, based on mean viability data.
PBMCs from healthy donors were exposed to Compound B1 and Compound AA for 6 hr and analyzed for viability by ATPight following 48 h of incubation. Results are representative of PBMCs from 5 healthy volunteers (FIG. 5). EC50 (PBMC)/EC50 (MM1.S) ratio, generated from 5 healthy donor PBMC samples, is shown for Compound B1, Compound AA and other UPS inhibitors [ixazomib, Bortezomib (BTZ) and CB5083].

[2] = tested on: poly-ubiquitinated proteins; test: Western blot of poly-ubiquitinated proteins in MM1.S cells; format: cell-based; conditions: SDS-PAGE immunoblot
Description: MM1.S cells were treated with Compound B1 (FIG. 1A), Compound AA (FIG. 1B) and Compound E1 (FIG. 1C) for indicated periods of time. Following treatment, the cells were harvested, and the lysates resolved on SDS-PAGE. Transferred membranes were blotted with antibodies as indicated. Actin was used as loading control.
Protein analysis by Western blot. At the end of treatment period, the cells were lysed with M-PER mammalian protein extraction reagent (ThermoFisher Scientific) supplemented with protease inhibitors. Equal protein amounts were resolved on pre-cast SDS-PAGE (ThermoFisher Scientific) and transferred to a PVDF membrane. The membrane was immunoblotted with antibodies as indicated. The following antibodies were used: Ub MAb (SC-8017, Santa-Cruz), ATF4, ATF6, phospho JNK, JNK (Cell signaling); eIF2alpha, phospho eIF2alpha (Novus).

HCC-2998 = test: NCI60 screen cytotoxicity; format: cell-based; conditions: Homo sapiens, Colon cancer, read-out: Compound B1 EC50
U251 = test: NCI60 screen cytotoxicity; format: cell-based; conditions: Homo sapiens, U-251, CNS, read-out: Compound B1 EC50
KM-12 = test: NCI60 screen cytotoxicity; format: cell-based; conditions: Homo sapiens, KM12, Colon cancer, read-out: Compound B1 EC50
SN12C = test: NCI60 screen cytotoxicity; format: cell-based; conditions: Homo sapiens, Renal cancer, read-out: Compound B1 EC50

Compound	inhibition of the enzymatic functions of the proteasome (TL, CTL and PL activities) (proteasome)	MM tumor growth compared to vehicle control (MM1.S xenograft; 4 mg/kg IV)	body weight % changes (MM1.S xenograft; 4 mg/kg IV)	Blood chemistry profiles (liver or kidney toxicity) (MM1.S xenograft; 4 mg/kg IV)	therapeutic window, EC50 (PBMC)/EC50 (MM1.S) ratio [1]	sensitivity of MM1.S cells versus PBMCs from healthy donors [1]	cytotoxicity to PBMCs from healthy donors [1]	accumulation of poly-ubiquitinated proteins [2]	EC50 (HCC-2998)	EC50 (U251)	MM tumor growth compared to vehicle control (MM1.S xenograft; 5 mg/kg IV)	body weight % changes (MM1.S xenograft; 5 mg/kg IV)	Blood chemistry profiles (liver or kidney toxicity) (MM1.S xenograft; 5 mg/kg IV)	EC50 (KM-12)	EC50 (SN12C)
CN(C)CCCS(=O)(=O)N1C/C(=C\c2ccc(C#N)cc2)C(=O)/C(=C/c2ccc(C#N)cc2)C1 [Compound AA]	does not Inhibit	significantly inhibited MM tumor growth	No significant weight loss	no clinical abnormalities suggestive of liver or kidney toxicity	larger Tx window than competing UPS inhibitors	more sensitive	less cytotoxic to PBMCs from healthy donors than Ixazomib, Bortezomib (BTZ) and CB5083	observable accumulation of poly-ubiquitinated proteins							
CN(C)CC(=O)NCC(=O)N1C/C(=C\c2ccc(C#N)cc2)C(=O)/C(=C/c2ccc(C#N)cc2)C1 [Compound B1]	does not Inhibit				larger Tx window than competing UPS inhibitors	more sensitive	less cytotoxic to PBMCs from healthy donors than Ixazomib, Bortezomib (BTZ) and CB5083	observable accumulation of poly-ubiquitinated proteins	< 300 nM	< 300 nM	significantly inhibited MM tumor growth	No significant weight loss	no clinical abnormalities suggestive of liver or kidney toxicity	< 300 nM	< 300 nM
